What is called MIC is the least concentration at which growth counts as inhibited.

The structures appear in SMILES notation. Values after ≈ are worked out from the molar mass of the structure shown.

This is an account of results in ChEMBL document CHEMBL5030558, “Optimization and Evaluation of Novel Antifungal Agents for the Treatment of Fungal Infection” (J Med Chem, 2021).

Format in all cases: functional
For assay [1], the system named is Nakaseomyces glabratus. Briefly: Antifungal activity against Candida glabrata BG2 assessed as reduction in fungal growth incubated for 48 hrs by CLSI based broth microdilution method. For orientation: Dilution methods test growth across graded concentrations, often in twofold steps.
Assay [2] concerns Aspergillus fumigatus. As to the kind of experiment: Antifungal activity against Aspergillus fumigatus AF293 assessed as reduction in fungal growth incubated for 48 hrs by CLSI based broth microdilution method.
Assay [3] has as its system Cryptococcus neoformans. As to the kind of experiment: Antifungal activity against Cryptococcus neoformans H99 assessed as reduction in fungal growth incubated for 72 hrs by CLSI based broth microdilution method.
For assay [4], the system named is Candida albicans. As to the kind of experiment: Antifungal activity against Candida albicans ATCC SC5314 assessed as reduction in fungal growth incubated for 48 hrs by CLSI based broth microdilution method.

Regarding `CC(C)(NCCc1ccc(OCc2cccc(F)c2)cc1)C(N)=O.CS(=O)(=O)O`, the MIC in assay [1] is more than 128 µg/mL; in assay [2] it was more than 128 µg/mL; in assay [3], 128 µg/mL; in assay [4] it was more than 128 µg/mL.
For `Nc1ncccc1C(=O)NCCc1ccc(-c2ccc(Cl)c(Cl)c2)cc1`, the MIC in assay [1], in assay [2], in assay [3] and in assay [4] was 128 µg/mL (≈ 331 µM) each time.
For `CC(C)(NCCc1ccc(OCc2cccc(C(F)(F)F)c2)cc1)C(N)=O.CS(=O)(=O)O`, the MIC was determined as 128 µg/mL in assay [1], 128 µg/mL in assay [2], 64 µg/mL in assay [3] and 128 µg/mL in assay [4].
`O=C(NCCc1ccc(-c2ccc(Cl)c(Cl)c2)cc1)c1cccnc1`: the minimal inhibitory concentration (MIC) in assay [1], in assay [2], in assay [3] and in assay [4] was 128 µg/mL (≈ 345 µM) each time.
With `CC(C)(NCCc1ccc(OCc2ccc(C(F)(F)F)cc2)cc1)C(N)=O.CS(=O)(=O)O`, the MIC in assay [1] turned out to be 128 µg/mL; in assay [2] it was 128 µg/mL; in assay [3] it was 64 µg/mL; in assay [4] it was 128 µg/mL.
As for `CC(NCCc1ccc(OCc2ccccc2F)cc1)C(N)=O.CS(=O)(=O)O` (stereo not drawn), the MIC in assay [1] is more than 128 µg/mL; in assay [2], more than 128 µg/mL; in assay [3], 128 µg/mL; in assay [4], more than 128 µg/mL.
With `Cl.O=C(NCCc1ccc(-c2ccc(Cl)c(Cl)c2)cc1)C1CCCN1` (stereo not drawn), the minimal inhibitory concentration (MIC) in assay [1] came to 16 µg/mL; in assay [2], 16 µg/mL; in assay [3], 8 µg/mL; in assay [4], 16 µg/mL.
For `CCC(N)C(=O)NCCc1ccc(-c2ccc(F)c(F)c2)cc1.Cl` (racemic), the MIC in assay [1] was determined as 64 µg/mL; in assay [2] it was 64 µg/mL; in assay [3], 64 µg/mL; in assay [4] it was 32 µg/mL.
Take `CC(NCCc1ccc(OCc2ccc(F)cc2)cc1)C(N)=O.CS(=O)(=O)O` (racemic): the MIC in assay [1] is more than 128 µg/mL; in assay [2], more than 128 µg/mL; in assay [3] it was 128 µg/mL; in assay [4], more than 128 µg/mL.
Take `CCC(NC)C(=O)NCCc1ccc(-c2ccc(C(F)(F)F)cc2)cc1.Cl` (racemic): the MIC in assay [1] is 64 µg/mL; in assay [2] it was 64 µg/mL; in assay [3] it was 16 µg/mL; in assay [4], 32 µg/mL.
On to `CCC(N)C(=O)NCCc1ccc(-c2ccc(OC(F)(F)F)cc2)cc1.Cl` (racemic), for which the MIC in assay [1] was determined as 16 µg/mL; in assay [2] it was 32 µg/mL; in assay [3], 16 µg/mL; in assay [4] it was 16 µg/mL.
For the molecule `CC(NCCc1ccc(OCc2ccc(Cl)cc2)cc1)C(N)=O.CS(=O)(=O)O` (racemic), the minimum inhibitory concentration (MIC) in assay [1] is more than 128 µg/mL; in assay [2] it was more than 128 µg/mL; in assay [3], 64 µg/mL; in assay [4], more than 128 µg/mL.
With `CC(NCCc1ccc(Oc2ccc(Cl)c(Cl)c2)cc1)C(N)=O.CS(=O)(=O)O` (racemic), the MIC in assay [1] stood at 32 µg/mL; in assay [2], 32 µg/mL; in assay [3] it was 8 µg/mL; in assay [4], 32 µg/mL.
For the molecule `CC(NCCc1ccc(OCc2ccc(C(F)(F)F)cc2)cc1)C(N)=O.CS(=O)(=O)O` (racemic), the MIC amounted to 128 µg/mL in assay [1], 64 µg/mL in assay [2], 32 µg/mL in assay [3] and 128 µg/mL in assay [4].
For `CC(NCCc1ccc(OCc2cccc(Cl)c2)cc1)C(N)=O.CS(=O)(=O)O` (racemic), the MIC in assay [1] was more than 128 µg/mL; in assay [2], 128 µg/mL; in assay [3] it was 32 µg/mL; in assay [4], 128 µg/mL.
Turning to `CC(NCCc1ccc(-c2ccc(C(F)(F)F)cc2)cc1)C(N)=O.CS(=O)(=O)O` (racemic), the MIC in assay [1] stood at 64 µg/mL; in assay [2] it was 32 µg/mL; in assay [3], 32 µg/mL; in assay [4], 128 µg/mL.
As for `CCCCC(N)C(=O)NCCc1ccc(-c2ccc(OC(F)(F)F)cc2)cc1.Cl` (racemic), the MIC was determined as 8 µg/mL in assay [1], 8 µg/mL in assay [2], 4 µg/mL in assay [3] and 8 µg/mL in assay [4].
In the case of `CC(NCCc1ccc(-c2ccc(Cl)c(Cl)c2)cc1)C(N)=O.CS(=O)(=O)O` (racemic), the MIC in assay [1] was determined as 16 µg/mL; in assay [2], 8 µg/mL; in assay [3] it was 8 µg/mL; in assay [4], 16 µg/mL.
With `CC(NCCc1ccc(OCc2ccccc2C(F)(F)F)cc1)C(N)=O.CS(=O)(=O)O` (racemic), the MIC is more than 128 µg/mL in assay [1], 64 µg/mL in assay [2], 64 µg/mL in assay [3] and more than 128 µg/mL in assay [4].
Turning to `CCCC(N)C(=O)NCCc1ccc(Oc2ccc(Cl)c(Cl)c2)cc1.Cl` (racemic), the MIC in assay [1] was 16 µg/mL; in assay [2], 16 µg/mL; in assay [3] it was 8 µg/mL; in assay [4], 16 µg/mL.
Regarding `CCC(N)C(=O)NCCc1ccc(-c2ccc(C(F)(F)F)cc2)cc1.Cl` (racemic), the MIC in assay [1] was 16 µg/mL; in assay [2], 32 µg/mL; in assay [3], 16 µg/mL; in assay [4] it was 16 µg/mL.
For `CCCC(N)C(=O)NCCc1ccc(Oc2ccc(C(F)(F)F)cc2)cc1.Cl` (racemic), the MIC in assay [1] amounted to 32 µg/mL; in assay [2], 32 µg/mL; in assay [3], 16 µg/mL; in assay [4], 32 µg/mL.
On to `CC(NCCc1ccc(OCc2ccc(Cl)cc2Cl)cc1)C(N)=O.CS(=O)(=O)O` (racemic), for which the MIC in assay [1] was 32 µg/mL; in assay [2] it was 32 µg/mL; in assay [3] it was 8 µg/mL; in assay [4], 32 µg/mL.
For the molecule `CCCCC(N)C(=O)NCCc1ccc(-c2ccc(F)c(F)c2)cc1.Cl` (racemic), the MIC was determined as 32 µg/mL in assay [1], 32 µg/mL in assay [2], 16 µg/mL in assay [3] and 16 µg/mL in assay [4].
In the case of `CCC(NC)C(=O)NCCc1ccc(-c2ccc(OC(F)(F)F)cc2)cc1.Cl` (racemic), the MIC in assay [1] was 32 µg/mL; in assay [2], 32 µg/mL; in assay [3], 16 µg/mL; in assay [4], 32 µg/mL.
`CC(NCCc1ccc(-c2cccc(OC(F)(F)F)c2)cc1)C(N)=O.CS(=O)(=O)O` (racemic): the MIC in assay [1] was 64 µg/mL; in assay [2], 16 µg/mL; in assay [3], 32 µg/mL; in assay [4], more than 128 µg/mL.
`CC(NCCc1ccc(Oc2ccc(C(F)(F)F)cc2)cc1)C(N)=O.CS(=O)(=O)O` (racemic): the MIC in assay [1] turned out to be 128 µg/mL; in assay [2], 64 µg/mL; in assay [3], 32 µg/mL; in assay [4], 128 µg/mL.
For the molecule `CCCC(NC)C(=O)NCCc1ccc(OCc2ccc(C(F)(F)F)cc2)cc1.Cl` (racemic), the MIC was 64 µg/mL in assay [1], 64 µg/mL in assay [2], 16 µg/mL in assay [3] and 64 µg/mL in assay [4].
Turning to `CCCC(NC)C(=O)NCCc1ccc(-c2ccc(OC(F)(F)F)cc2)cc1.Cl` (racemic), the minimal inhibitory concentration (MIC) in assay [1] turned out to be 128 µg/mL; in assay [2] it was 16 µg/mL; in assay [3], 8 µg/mL; in assay [4], 32 µg/mL.
The corresponding values for `CC(NCCc1ccc(OCc2ccccc2Cl)cc1)C(N)=O.CS(=O)(=O)O` (racemic) are more than 128 µg/mL, 128 µg/mL, 32 µg/mL and more than 128 µg/mL.
Regarding `CCCCC(N)C(=O)NCCc1ccc(-c2ccc(C(F)(F)F)cc2)cc1.Cl` (racemic), the MIC worked out at 8 µg/mL in assay [1], 8 µg/mL in assay [2], 4 µg/mL in assay [3] and 8 µg/mL in assay [4].
In the case of `CCC(NC)C(=O)NCCc1ccc(-c2ccc(Cl)c(Cl)c2)cc1.Cl` (racemic), the MIC in assay [1] came out at 16 µg/mL; in assay [2], 16 µg/mL; in assay [3], 8 µg/mL; in assay [4], 16 µg/mL.
In the case of `CCCC(N)C(=O)NCCc1ccc(OCc2ccc(Cl)c(Cl)c2)cc1.Cl` (racemic), the MIC in assay [1] worked out at 16 µg/mL; in assay [2] it was 16 µg/mL; in assay [3] it was 8 µg/mL; in assay [4], 8 µg/mL.
As for `CCC(N)C(=O)NCCc1ccc(-c2ccc(Cl)c(Cl)c2)cc1.Cl` (racemic), the MIC was 16 µg/mL in assay [1], 16 µg/mL in assay [2], 8 µg/mL in assay [3] and 8 µg/mL in assay [4].
As for `COc1cccc(COc2ccc(CCNC(C)C(N)=O)cc2)c1.CS(=O)(=O)O` (racemic), the MIC in assay [1] is more than 128 µg/mL; in assay [2] it was more than 128 µg/mL; in assay [3], 128 µg/mL; in assay [4], 128 µg/mL.
With `CC(NCCc1ccc(OCc2ccc(Cl)c(Cl)c2)cc1)C(N)=O.CS(=O)(=O)O` (racemic), the MIC in assay [1] was 32 µg/mL; in assay [2] it was 32 µg/mL; in assay [3] it was 8 µg/mL; in assay [4] it was 32 µg/mL.
With `CCCC(NC)C(=O)NCCc1ccc(OCc2ccc(Cl)c(Cl)c2)cc1.Cl` (racemic), the MIC in assay [1] was 32 µg/mL; in assay [2], 32 µg/mL; in assay [3] it was 8 µg/mL; in assay [4] it was 32 µg/mL.
Take `CC(NCCc1ccc(-c2ccc(OC(F)(F)F)cc2)cc1)C(N)=O.CS(=O)(=O)O` (racemic): the MIC in assay [1] was more than 128 µg/mL; in assay [2], more than 128 µg/mL; in assay [3] it was 16 µg/mL; in assay [4] it was 36 µg/mL.
With `CC(NCCc1ccc(OCc2cccc(F)c2)cc1)C(N)=O.CS(=O)(=O)O` (racemic), the MIC in assay [1] was more than 128 µg/mL; in assay [2], more than 128 µg/mL; in assay [3] it was 64 µg/mL; in assay [4], more than 128 µg/mL.
With `CCCC(N)C(=O)NCCc1ccc(-c2ccc(C(F)(F)F)cc2)cc1.Cl` (racemic), the minimal inhibitory concentration (MIC) in assay [1] was 16 µg/mL; in assay [2], 16 µg/mL; in assay [3] it was 8 µg/mL; in assay [4] it was 8 µg/mL.
Consider `CC(NCCc1ccc(OCc2cccc(C(F)(F)F)c2)cc1)C(N)=O.CS(=O)(=O)O` (racemic), for which the MIC came out at 128 µg/mL in assay [1], 64 µg/mL in assay [2], 32 µg/mL in assay [3] and 128 µg/mL in assay [4].
Turning to `CCCC(N)C(=O)NCCc1ccc(-c2ccc(OC(F)(F)F)cc2)cc1.Cl` (racemic), the MIC in assay [1] stood at 16 µg/mL; in assay [2], 16 µg/mL; in assay [3], 4 µg/mL; in assay [4], 8 µg/mL.
